These are literature values, as cited in patent publication US20020042375A1, “Method of treating cancer” (priority 2000, published 2002).

Data set [1] concerns LNCaP prostate cancer cells.
Data set [2] has as its system PC-3 prostate cancer cells. To be noted: PC-3 cells.
The next data set relates to prostate cancer cell. To be noted: in vitro.
The next data set concerns LNCaP cells. To be noted: exogenous administration.

With `CS(=O)(=O)Nc1ccc([N+](=O)[O-])cc1OC1CCCCC1` [NS398], the apoptosis entry in data set [1] and in data set [2] was “induce apoptosis” in each case. In addition, the “prostate cancer cell apoptosis” value with prostate cancer cell was “induce prostate cancer cell apoptosis”.

As for `CC(=O)Oc1ccccc1C(=O)O` [aspirin], the “prostate cancer cell apoptosis” value in the data set on prostate cancer cell was “induce prostate cancer cell apoptosis”. Take `CCCCC(C)(C)[C@H](O)/C=C/[C@H]1[C@H](O)CC(=O)[C@@H]1C/C=C\CCCC(=O)O` [dimethylprostaglandin E2]: the proliferation in vitro result with PC-3 cells (exogenous administration, PC-3 cells) is “increased proliferation”; with LNCaP cells it was “increased proliferation”. As to `CC(C(=O)O)c1ccc(-c2ccccc2)c(F)c1` (centres unmarked) [flurbiprofen], the PC-3 growth result in the data set on PC-3 cells (in the dimethylprostaglandin E2 model) was “inhibited PC-3 growth”. In addition, in the data set on prostate cancer cell, the “prostate cancer cell apoptosis” value was “induce prostate cancer cell apoptosis”. Take `COc1ccc2c(c1)c(CC(=O)O)c(C)n2C(=O)c1ccc(Cl)cc1` [indomethacin]: in the data set on prostate cancer cell, the “prostate cancer cell apoptosis” value is “induce prostate cancer cell apoptosis”. For the compound `CC(C(=O)O)c1cccc(C(=O)c2ccccc2)c1` (centres unmarked) [ketoprofen], in the data set on prostate cancer cell, the “prostate cancer cell apoptosis” value is on record as “induce prostate cancer cell apoptosis”.

In the case of `CN1C(C(=O)Nc2ccccn2)=C(O)c2ccccc2S1(=O)=O` [piroxicam], in the data set on prostate cancer cell, the “prostate cancer cell apoptosis” value was “induce prostate cancer cell apoptosis”.
